# Measured values reported in ChEMBL document CHEMBL4765468, “Development of Novel Tetrahydroquinoline Inhibitors of NLRP3 Inflammasome for Potential Treatment of DSS-Induced Mouse Colitis” (J Med Chem, 2021).
# Tests used:
# THP-1 = test: Cytotoxicity in human THP-1 cells assessed as reduction in cell viability incubated for 72 hrs by MTT assay; type: cell-based; settings: THP-1, 72 h
# [1] = target: NACHT, LRR and PYD domains-containing protein 3 (Homo sapiens, UniProt Q96P20); test: Inhibition of NLRP3 in PMA-stimulated human THP-1 cells assessed as reduction in IL-1beta release pre-treated for 24 hrs followed by stimulation with LPS for 3 hrs and ATP for 1 hr by ELISA analysis; type: cell-based
# Chain of NACHT, LRR and PYD domains-containing protein 3 (Q96P20 whole entry, the tested form may be a part): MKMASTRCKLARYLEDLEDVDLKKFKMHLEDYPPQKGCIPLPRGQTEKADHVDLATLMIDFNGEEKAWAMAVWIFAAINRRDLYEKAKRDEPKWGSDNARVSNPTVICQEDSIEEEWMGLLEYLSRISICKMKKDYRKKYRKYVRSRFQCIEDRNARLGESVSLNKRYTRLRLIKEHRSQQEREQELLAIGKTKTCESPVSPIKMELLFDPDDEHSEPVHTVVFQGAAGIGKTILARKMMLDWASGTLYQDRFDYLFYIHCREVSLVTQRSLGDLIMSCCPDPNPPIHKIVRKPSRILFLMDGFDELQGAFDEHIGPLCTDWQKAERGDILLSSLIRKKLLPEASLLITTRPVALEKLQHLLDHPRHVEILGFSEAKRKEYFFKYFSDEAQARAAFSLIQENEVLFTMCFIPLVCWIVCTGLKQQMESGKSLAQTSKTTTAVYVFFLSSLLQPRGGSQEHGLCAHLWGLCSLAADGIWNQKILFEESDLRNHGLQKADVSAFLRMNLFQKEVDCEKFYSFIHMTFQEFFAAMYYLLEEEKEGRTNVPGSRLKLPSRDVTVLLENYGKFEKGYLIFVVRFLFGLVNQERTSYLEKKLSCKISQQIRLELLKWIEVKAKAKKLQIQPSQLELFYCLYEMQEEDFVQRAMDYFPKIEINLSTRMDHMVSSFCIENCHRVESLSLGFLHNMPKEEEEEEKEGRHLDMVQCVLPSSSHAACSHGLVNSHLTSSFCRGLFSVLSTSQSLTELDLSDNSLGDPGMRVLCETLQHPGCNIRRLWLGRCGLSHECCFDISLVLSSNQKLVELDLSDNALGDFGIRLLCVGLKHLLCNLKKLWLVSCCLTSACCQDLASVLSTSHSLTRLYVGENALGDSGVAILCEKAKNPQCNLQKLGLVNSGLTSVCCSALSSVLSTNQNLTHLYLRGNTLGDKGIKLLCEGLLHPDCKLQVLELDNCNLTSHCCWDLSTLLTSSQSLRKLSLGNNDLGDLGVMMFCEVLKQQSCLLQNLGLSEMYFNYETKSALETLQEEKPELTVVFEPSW
IC50 [1] [µM],SMILES,IC50 (THP-1) [µM]
13.7,CS(=O)(=O)N1CCCc2ccc(N(S(=O)(=O)c3ccccc3[N+](=O)[O-])S(=O)(=O)c3ccccc3[N+](=O)[O-])cc21,> 100
,COc1ccc(S(=O)(=O)N(c2ccc3c(c2)N(S(C)(=O)=O)CCC3)S(=O)(=O)c2ccc(OC)cc2)cc1,90.9
,CCS(=O)(=O)N(c1ccc2c(c1)N(S(C)(=O)=O)CCC2)S(=O)(=O)CC,> 100
,CCCS(=O)(=O)N(c1ccc2c(c1)N(S(C)(=O)=O)CCC2)S(=O)(=O)CCC,98.8
,CS(=O)(=O)N1CCCc2ccc(N(S(=O)(=O)c3ccc4ccccc4c3)S(=O)(=O)c3ccc4ccccc4c3)cc21,97.2
,CS(=O)(=O)N1CCCc2ccc(N(S(=O)(=O)CCN3C(=O)c4ccccc4C3=O)S(=O)(=O)CCN3C(=O)c4ccccc4C3=O)cc21,> 100
,CS(=O)(=O)N1CCCc2ccc(N(S(=O)(=O)c3ccc(F)cc3)S(=O)(=O)c3ccc(F)cc3)cc21,> 100
,CC(C)(O)c1coc(S(=O)(=O)NC(=O)Nc2c3c(cc4c2CCC4)CCC3)c1,98.8
,CS(=O)(=O)N1CCCc2ccc(N(S(=O)(=O)c3ccccc3F)S(=O)(=O)c3ccccc3F)cc21,> 100
,CS(=O)(=O)N1CCCc2ccc(N(S(=O)(=O)Cc3ccccc3)S(=O)(=O)Cc3ccccc3)cc21,> 100
,COC(=O)c1ccc(S(=O)(=O)N(c2ccc3c(c2)N(S(C)(=O)=O)CCC3)S(=O)(=O)c2ccc(C(=O)OC)cc2)cc1,> 100
,CCCCS(=O)(=O)N(c1ccc2c(c1)N(S(C)(=O)=O)CCC2)S(=O)(=O)CCCC,95.5
,CS(=O)(=O)N1CCCc2ccc(N(S(=O)(=O)c3ccc(Cl)cc3)S(=O)(=O)c3ccc(Cl)cc3)cc21,> 100
,CS(=O)(=O)N1CCCc2ccc(N(S(C)(=O)=O)S(C)(=O)=O)cc21,> 100
,CC(=O)Nc1ccc(S(=O)(=O)N(c2ccc3c(c2)N(S(C)(=O)=O)CCC3)S(=O)(=O)c2ccc(NC(C)=O)cc2)cc1,> 100
,CS(=O)(=O)N1CCCc2ccc(N(S(=O)(=O)c3ccc(-c4ccccc4)cc3)S(=O)(=O)c3ccc(-c4ccccc4)cc3)cc21,> 100
,CS(=O)(=O)N1CCCc2ccc(N(S(=O)(=O)c3ccc(C#N)cc3)S(=O)(=O)c3ccc(C#N)cc3)cc21,35.9
,CS(=O)(=O)N1CCCc2ccc(N(S(=O)(=O)c3cccs3)S(=O)(=O)c3cccs3)cc21,> 100
,CS(=O)(=O)N1CCCc2ccc(N(S(=O)(=O)c3cccc(F)c3)S(=O)(=O)c3cccc(F)c3)cc21,71.8
,CS(=O)(=O)N1CCCc2ccc(N(S(=O)(=O)c3ccccc3)S(=O)(=O)c3ccccc3)cc21,> 100
,CS(=O)(=O)N1CCCc2ccc(N(S(=O)(=O)c3cccc4ccccc34)S(=O)(=O)c3cccc4ccccc34)cc21,> 100
,CS(=O)(=O)N1CCCc2ccc(N(S(=O)(=O)c3cc(C(F)(F)F)cc(C(F)(F)F)c3)S(=O)(=O)c3cc(C(F)(F)F)cc(C(F)(F)F)c3)cc21,34.7
,CS(=O)(=O)N1CCCc2ccc(N(S(=O)(=O)c3ccc([N+](=O)[O-])cc3)S(=O)(=O)c3ccc([N+](=O)[O-])cc3)cc21,65.3
,CS(=O)(=O)N1CCCc2ccc(N(S(=O)(=O)c3ccc(C(F)(F)F)cc3)S(=O)(=O)c3ccc(C(F)(F)F)cc3)cc21,8.32
,Cc1ccc(S(=O)(=O)N(c2ccc3c(c2)N(S(C)(=O)=O)CCC3)S(=O)(=O)c2ccc(C)cc2)cc1,78.4
,CS(=O)(=O)N1CCCc2ccc(N(S(=O)(=O)c3ccc(Br)cc3)S(=O)(=O)c3ccc(Br)cc3)cc21,66.6
,CS(=O)(=O)N1CCCc2ccc(N(S(=O)(=O)c3cccnc3)S(=O)(=O)c3cccnc3)cc21,71.1
